Data taken from US20120077802A1 (SUNOVION PHARMACEUTICALS INC., priority 2009, published 2012).
Where two headings read alike, the source gives them in different places.

Molecular target: T1, human histamine H3 receptor (Homo sapiens, UniProt Q9Y5N1)
T1 construct: host or cells: cells expressing the human H3 receptor
Test: H3 GTPγS assay (SPA method), histamine H3 in vitro assay
Format: biochemical
Method: H3 GTPγS assay (SPA method) was performed at EuroScreen (Belgium, ES-392-C) using conventional methods. Briefly, cells expressing the human histamine H3 receptor were homogenized in 15 mM Tris-HCl pH 7.5, 2 mM MgCl2, 0.3 mM EDTA, and 1 mM EGTA. Membranes were washed twice in the above tris buffer, collected by centrifugation (40,000×g, 25 min), and re-suspended in 75 mM Tris-HCl pH 7.5, 12.5 mM MgCl2, 0.3 mM EDTA, 1 mM EGTA, and 250 mM sucrose. Membranes were frozen in liquid nitrogen until use. On the day of the assay, membranes were thawed and diluted in assay buffer (20 mM HEPES pH 7.4, 100 mM NaCl, 10 μg/ml saponin, 1 mM MgCl2) to give 500 μg/ml and mixed (v/v) with GDP in assay buffer for a final GDP concentration of 10 μM and incubated on ice for at least 15 min. PVT-WGA beads (Amersham, RPNQ001) were diluted in assay buffer at 50 mg/mL and mixed with GTPγ[^35S] (Amersham, SJ1308) diluted in assay buffer to give ˜25,000 dpm/10 μL, and mixed vol/vol just before the start of the reaction. The reaction was started by adding 50 μL of test compound, 20 μL of the membranes:GDP mix, 10 μL of buffer, and 20 μL of the GTPγ[^35S]:beads mix in a 96 well plate Optiplate™ (PerkinElmer, 6005299) covered with topseal (TopCount™, PerkinElmer), mixed with an orbital shaker for 2 min, incubated for 1 hour at room temperature, centrifuged for 10 min at 2000 rpm, incubated for 1 h at room temperature, and counted for 1 min in a TopCount™ reader (PerkinElmer). Dose response curves and IC50 values (concentration to inhibit the reaction by 50%) were calculated by nonlinear regression using XLfit software (IDBS).
For antagonists testing, 10 μL of a reference agonist (R-γ-Me-Histamine) instead of 10 μL buffer was added at a concentration corresponding to the EC80 (30 nM). Control ligands were R-γ-Me-Histamine (Tocris, 0569), Imetit (Sigma, I-135), Thioperamide (Tocris, 0644), and Clobenpropit (Tocris, 0754) diluted in assay buffer.
The compounds provided herein were tested in the histamine H3 in vitro assay. In one embodiment, the respective HCl salts of the compounds provided herein were prepared using standard chemical procedures and tested in the histamine H3 in vitro assay.

[1] = GTPγ[35S] SPA, membranes of cells expressing human H3 receptor, in one embodiment HCl salts tested, read-out: Potency (functional potency as indicated by IC50)

T1 sequence (Q9Y5N1 whole entry): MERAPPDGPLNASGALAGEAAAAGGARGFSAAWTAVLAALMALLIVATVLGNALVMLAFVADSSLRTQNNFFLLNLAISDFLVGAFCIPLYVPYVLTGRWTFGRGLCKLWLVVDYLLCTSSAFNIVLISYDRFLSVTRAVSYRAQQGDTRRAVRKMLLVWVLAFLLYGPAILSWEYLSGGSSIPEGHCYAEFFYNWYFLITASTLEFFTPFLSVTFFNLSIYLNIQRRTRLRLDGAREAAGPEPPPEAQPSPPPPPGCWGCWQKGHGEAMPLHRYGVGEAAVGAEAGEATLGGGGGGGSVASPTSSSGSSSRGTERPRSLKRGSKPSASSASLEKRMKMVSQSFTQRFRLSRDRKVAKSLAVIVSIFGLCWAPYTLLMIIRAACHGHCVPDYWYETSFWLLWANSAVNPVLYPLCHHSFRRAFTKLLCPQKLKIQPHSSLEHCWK

| IC50 [1] [µM] | IC50 (histamine H3 in vitro assay, read-out: IC50 values) [µM] | SMILES |
| --- | --- | --- |
| ≤ 0.1 |  | CC1CCCC1N1CCC2(CC1)Cc1cc(-c3ccc(C#N)cc3)ccc1O2 (stereo not shown) [Compound 18] |
| ≤ 0.1 |  | N#Cc1ccc(-c2ccc3c(c2)CC2(CCN(C4CCOCC4)CC2)O3)cc1 [Compound 19, 4-(1′-(Tetrahydro-2H-pyran-4-yl)-3H-spiro[benzofuran-2,4′-piperidine]-5-yl)benzonitrile] |
| ≤ 0.1 |  | N#Cc1ccc(-c2ccc3c(c2)CC2(CCN(C4CCCCC4)CC2)O3)cc1 [Compound 20, 4-(1′-Cyclohexyl-3H-spiro[benzofuran-2,4′-piperidine]-5-yl)benzonitrile] |
| ≤ 1 |  | N#Cc1ccc(-c2ccc3c(c2)CC2(CCN(CC4CCC4)CC2)O3)cc1 [Compound 21, 4-(1′-(Cyclobutylmethyl)-3H-spiro[benzofuran-2,4′-piperidine]-5-yl)benzonitrile] |
| ≤ 0.01 |  | CC(C)N1CCC2(CC1)Cc1cc(-c3ccc(C#N)cc3)ccc1O2 [Compound 22, 4-(1′-Isopropyl-3H-spiro[benzofuran-2,4′-piperidine]-5-yl)benzonitrile] |
| ≤ 1 |  | Brc1ccc2c(c1)CC1(CCN(C3CCC3)CC1)O2 [Compound 23, 5-Bromo-1′-cyclobutyl-3H-spiro[benzofuran-2,4′-piperidine]] |
| ≤ 1 |  | CN1CCC(N2CCC3(CC2)Cc2cc(Br)ccc2O3)CC1 [Compound 24, 5-Bromo-1′-(1-methylpiperidin-4-yl)-3H-spiro[benzofuran-2,4′-piperidine]] |
| ≤ 1 |  | CC(C1CCC1)N1CCC2(CC1)Cc1cc(Br)ccc1O2 (stereo not shown) [Compound 25, 5-Bromo-1′-(1-cyclobutylethyl)-3H-spiro[benzofuran-2,4′-piperidine]] |
|  | > 1 | Brc1ccc2c(c1)CC1(CCN(Cc3c[nH]cn3)CC1)O2 [Compound 26, 1′-((1H-Imidazol-4-yl)methyl)-5-bromo-3H-spiro[benzofuran-2,4′-piperidine]] |
| ≤ 0.1 |  | c1cc2c(cc1-c1cn[nH]c1)CC1(CCN(C3CCC3)CC1)O2 [Compound 27, 1′-Cyclobutyl-5-(1H-pyrazol-4-yl)-3H-spiro[benzofuran-2,4′-piperidine]] |
| ≤ 0.1 |  | COc1ccnc(-c2ccc3c(c2)CC2(CCN(C4CCC4)CC2)O3)n1 [Compound 28, 1′-Cyclobutyl-5-(4-methoxypyrimidin-2-yl)-3H-spiro[benzofuran-2,4′-piperidine]] |
| ≤ 0.01 |  | c1cnc(-c2ccc3c(c2)CC2(CCN(C4CCC4)CC2)O3)cn1 [Compound 29, 1′-Cyclobutyl-5-(pyrazin-2-yl)-3H-spiro[benzofuran-2,4′-piperidine]] |
| ≤ 0.01 |  | c1cn(-c2ccc3c(c2)CC2(CCN(C4CCC4)CC2)O3)cn1 [Compound 31, 1′-Cyclobutyl-5-(1H-imidazol-1-yl)-3H-spiro[benzofuran-2,4′-piperidine]] |
| ≤ 0.01 |  | c1ccc2c(c1)ncn2-c1ccc2c(c1)CC1(CCN(C3CCC3)CC1)O2 [Compound 32, 5-(1H-Benzo[d]imidazol-1-yl)-1′-cyclobutyl-3H-spiro[benzofuran-2,4′-piperidine]] |
| ≤ 0.01 |  | CN1CCN(c2ccc3c(c2)CC2(CCN(C4CCC4)CC2)O3)CC1 [Compound 33, 1′-Cyclobutyl-5-(4-methylpiperazin-1-yl)-3H-spiro[benzofuran-2,4′-piperidine]] |
| ≤ 0.1 |  | c1cc2c(cc1N1CCCCC1)CC1(CCN(C3CCC3)CC1)O2 [Compound 34, 1′-Cyclobutyl-5-(piperidin-1-yl)-3H-spiro[benzofuran-2,4′-piperidine]] |
| ≤ 0.1 |  | N#Cc1ccc(-c2ccc3c(c2)OC2(CCN(C4CCC4)CC2)C3)cc1 [Compound 35, 4-(1′-Cyclobutyl-3H-spiro[benzofuran-2,4′-piperidine]-6-yl)benzonitrile] |
| ≤ 0.1 |  | COc1ccnc(-c2ccc3c(c2)OC2(CCN(C4CCC4)CC2)C3)n1 [Compound 36, 1′-Cyclobutyl-6-(4-methoxypyrimidin-2-yl)-3H-spiro[benzofuran-2,4′-piperidine]] |
| ≤ 0.1 |  | c1cnc(-c2ccc3c(c2)OC2(CCN(C4CCC4)CC2)C3)cn1 [Compound 37, 1′-Cyclobutyl-6-(pyrazin-2-yl)-3H-spiro[benzofuran-2,4′-piperidine]] |

| IC50 [1] [µM] | IC50 (histamine H3 in vitro assay, read-out: IC50 values) [µM] | SMILES |
| --- | --- | --- |
| ≤ 0.1 |  | CN1CCN(c2ccc3c(c2)OC2(CCN(C4CCC4)CC2)C3)CC1 [Compound 38, 1′-Cyclobutyl-6-(4-methylpiperazin-1-yl)-3H-spiro[benzofuran-2,4′-piperidine]] |
| ≤ 0.01 |  | CN(C)Cc1ccc2c(c1)CC1(CCN(C3CCC3)CC1)O2 [Compound 39, 1-(1′-Cyclobutyl-3H-spiro[benzofuran-2,4′-piperidine]-5-yl)-N,N-dimethylmethanamine] |
| ≤ 0.1 |  | N#Cc1ccc(NCc2ccc3c(c2)CC2(CCN(C4CCC4)CC2)O3)cc1 [Compound 42, 4-((1′-Cyclobutyl-3H-spiro[benzofuran-2,4′-piperidine]-5-yl)methylamino)benzonitrile] |
| ≤ 0.1 |  | CN(C)Cc1ccc2c(c1)OC1(CCN(C3CCC3)CC1)C2 [Compound 43, 1-(1′-Cyclobutyl-3H-spiro[benzofuran-2,4′-piperidine]-6-yl)-N,N-dimethylmethanamine] |
| ≤ 0.1 |  | c1cc2c(cc1CN1CCOCC1)OC1(CCN(C3CCC3)CC1)C2 [Compound 44, 1′-Cyclobutyl-6-(morpholinomethyl)-3H-spiro[benzofuran-2,4′-piperidine]] |
| ≤ 0.1 |  | c1cc2c(cc1CN1CCCC1)OC1(CCN(C3CCC3)CC1)C2 [Compound 45, 1′-Cyclobutyl-6-(pyrrolidin-1-ylmethyl)-3H-spiro[benzofuran-2,4′-piperidine]] |
| ≤ 0.1 |  | N#Cc1ccc(NCc2ccc3c(c2)OC2(CCN(C4CCC4)CC2)C3)cc1 [Compound 46, 4-((1′-Cyclobutyl-3H-spiro[benzofuran-2,4′-piperidine]-6-yl)methylamino)benzonitrile] |
| ≤ 1 |  | Brc1ccc2c(c1)CC1(CCCN(C3CCC3)CC1)O2 (stereo not shown) [Compound 47, 5′-Bromo-1-cyclobutyl-3′H-spiro[azepane-4,2′-benzofuran]] |
| ≤ 0.01 |  | N#Cc1ccc(-c2ccc3c(c2)CC2(CCCN(C4CCC4)CC2)O3)cc1 (stereo not shown) [Compound 48, 4-(1-Cyclobutyl-3′H-spiro[azepane-4,2′-benzofuran]-5′-yl)benzonitrile] |
| ≤ 0.1 |  | c1cn2cc(-c3ccc4c(c3)CC3(CCCN(C5CCC5)CC3)O4)ccc2n1 (stereo not shown) [Compound 49, 1-Cyclobutyl-5′-(imidazo[1,2-a]pyridin-6-yl)-3′H-spiro[azepane-4,2′-benzofuran]] |
| ≤ 0.01 |  | c1ccc2c(c1)ncn2-c1ccc2c(c1)CC1(CCCN(C3CCC3)CC1)O2 (stereo not shown) [Compound 50, 5′-(1H-Benzo[d]imidazol-1-yl)-1-cyclobutyl-3′H-spiro[azepane-4,2′-benzofuran]] |
| ≤ 0.1 |  | c1cc2c(cc1N1CCCCC1)CC1(CCCN(C3CCC3)CC1)O2 (stereo not shown) [Compound 51, 1-Cyclobutyl-5′-(piperidin-1-yl)-3′H-spiro[azepane-4,2′-benzofuran]] |
| ≤ 0.01 |  | Cc1cn2cc(-c3ccc4c(c3)CC3(CCN(C5CCC5)CC3)O4)ccc2n1 [Compound 54, 1′-Cyclobutyl-5-(2-methylimidazo[1,2-a]pyridin-6-yl)-3H-spiro[benzofuran-2,4′-piperidine]] |
| ≤ 0.1 |  | c1cc2cc(-c3ccc4c(c3)CC3(CCN(C5CCC5)CC3)O4)cnc2[nH]1 [Compound 55, 1′-Cyclobutyl-5-(1H-pyrrolo[2,3-b]pyridin-5-yl)-3H-spiro[benzofuran-2,4′-piperidine]] |
| ≤ 0.01 |  | c1cc2nc(-c3ccc4c(c3)CC3(CCN(C5CCC5)CC3)O4)ccc2[nH]1 [Compound 56, 1′-Cyclobutyl-5-(1H-pyrrolo[3,2-b]pyridin-5-yl)-3H-spiro[benzofuran-2,4′-piperidine]] |
| ≤ 0.01 |  | c1cc2c(cc1-c1ccc3cncn3c1)CC1(CCN(C3CCC3)CC1)O2 [Compound 57, 1′-Cyclobutyl-5-(imidazo[1,5-a]pyridin-6-yl)-3H-spiro[benzofuran-2,4′-piperidine]] |
| ≤ 0.01 |  | c1cc2nc(-c3ccc4c(c3)CC3(CCN(C5CCC5)CC3)O4)cnc2[nH]1 [Compound 58, 1′-Cyclobutyl-5-(5H-pyrrolo[2,3-b]pyrazin-2-yl)-3H-spiro[benzofuran-2,4′-piperidine]] |
| ≤ 0.01 |  | c1cc2ncc(-c3ccc4c(c3)CC3(CCN(C5CCC5)CC3)O4)cc2[nH]1 [Compound 59, 1′-Cyclobutyl-5-(1H-pyrrolo[3,2-b]pyridin-6-yl)-3H-spiro[benzofuran-2,4′-piperidine]] |
